# Measurements published in patent publication US10793568B2, “Hormone receptor modulators for treating metabolic conditions and disorders” (ARDELYX, INC., priority 2016, dated 2020).
# Assays:
# [1] = biological target: ligand binding domain of human FXR (Homo sapiens (Human), UniProt Q96RI1); assay: FXR ligand binding assay (LanthaScreen TR-FRET, SRC2-2 peptide recruitment); details: for pEC50: -log EC50, concentration required to produce 50% activation; for Emax: extent of activation relative to GW4064, read-out: % Efficacy
# ligand binding domain of human FXR, sequence (Q96RI1 262-486): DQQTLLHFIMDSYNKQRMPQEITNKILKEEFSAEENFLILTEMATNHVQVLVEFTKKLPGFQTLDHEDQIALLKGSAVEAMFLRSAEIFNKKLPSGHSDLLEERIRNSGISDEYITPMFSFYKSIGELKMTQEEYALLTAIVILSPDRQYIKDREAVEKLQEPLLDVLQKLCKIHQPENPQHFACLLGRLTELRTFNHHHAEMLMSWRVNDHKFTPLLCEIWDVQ
# Experimental: The affinity of FXR ligands for the ligand binding domain of FXR was determined using a commercially available human FXR ligand binding assay (LanthaScreen, Thermofisher Cat # PV4833). […] Binding of FXR ligands to the FXR ligand binding domain promotes binding of the fluorescein-labelled SRC2-2 peptide. This causes a FRET signal between the terbium-labelled anti-GST antibody and the fluorescein-labelled SRC peptide which are both bound to the FXR ligand binding domain.
# Test compounds are dissolved in DMSO and a 3-fold serial dilution series is generated, then further diluted into assay buffer. The compounds are mixed with 5 nM GST-tagged FXR ligand binding domain, 5 nM Tb-labelled anti-GST antibody and 500 nM fluorescein-labelled SRC2-2 peptide in a pH7.4 buffer. The reaction is incubated at room temperature for 1 hour, then the FRET signal is measured as the ratio of the 520 nm/495 nm emission following excitation at 340 nm. The change in FRET signal is plotted against the test article concentration and fit to a 3-parameter logistical equation. The concentration required to produce 50% activation is expressed as pEC50 (−log EC50), and the extent of activation is expressed relative to GW4064 as % activation.
# [2] = biological target: human Farnesoid X receptor ligand-binding domain/Gal4 DNA binding domain chimera (Homo sapiens (Human), UniProt Q96RI1); assay: Cell-based assay of FXR activation (FXR-UAS-bla HEK 293T beta-lactamase reporter); details: cellular FXR beta-lactamase reporter assay; for Emax: HEK-293T, extent of activation relative to GW4064, read-out: % Efficacy; for EC50: FXR-UAS-bla HEK 293T cells, 16 h, pEC50 = -log EC50
# human Farnesoid X receptor ligand-binding domain/Gal4 DNA binding domain chimera, sequence (Q96RI1 262-486, stated change not applied): as the sequence (Q96RI1 262-486) above
# human Farnesoid X receptor ligand-binding domain/Gal4 DNA binding domain chimera, sequence (P04386 1-147 partner): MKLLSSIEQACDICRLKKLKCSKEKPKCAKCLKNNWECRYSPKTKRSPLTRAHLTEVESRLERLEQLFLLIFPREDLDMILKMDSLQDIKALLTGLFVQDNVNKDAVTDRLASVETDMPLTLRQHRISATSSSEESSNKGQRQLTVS
# Experimental: FXR activation was measured using a cell line and procedure obtained from Life Technologies (Cat # K1691). FXR-UAS-bla HEK 293T cells contain a human Farnesoid X receptor ligand-binding domain/Gal4 DNA binding domain chimera stably integrated into the CellSensor® UAS-bla HEK 293T cell line. The CellSensor® UAS-bla HEK 293T contains a beta-lactamase reporter gene under control of a UAS response element stably integrated into HEK 293T cells. Activation of FXR by bound ligands results in transcriptional activation of the beta-lactamase reporter gene, which is detected via assay of beta-lactamase activity.
# Cells are harvested and diluted into assay medium containing phenol red-free DMEM supplemented with 2% Charcoal-stripped FBS, pyruvate, non-essential amino acids. Cells are then transferred to a 384 well assay plate. Test compounds are dissolved in DMSO and a 3-fold serial dilution series is generated, then further diluted into assay medium. Compounds in assay medium are added to cells in the 384 well plate and allowed to incubate 16 h at 37 C in the presence of 5% CO2.
# A FRET-based […] is loaded into cells as its acetomethoxy ester. Intracellular esterases liberate free CCF4, a cephalosporin core linking 7-hydroxycoumarin to fluorescein. In the presence of beta-lactamase activity produced in the presence of FXR agonists, cleavage of CCF4 spatially separates the two dyes and disrupts FRET, so that exciting the coumarin at 409 nm now produces a blue fluorescence signal at 447 nm. The change in FRET signal is plotted against the test compound concentration and fit to a 3-parameter logistical equation. The concentration required to produce 50% activation is expressed as pEC50 (−log EC50), and the extent of activation is expressed relative to GW4064 as % activation.
SMILES,pEC50 [1],Emax [1] [%],Emax [2] [%],EC50 [2] [nM]
"O=C(O)[C@H]1CCc2cc(N3C[C@@H]4C[C@H]3C[C@H]4OCc3c(-c4c(Cl)cccc4Cl)noc3C3CC3)ccc2C1 (single isomer, unassigned) [Compound I-138]",7.6,132,106,15.8
"O=C(O)c1cc(F)c2nc(N3C[C@@H]4C[C@H]3C[C@H]4OC(=O)c3c(-c4c(Cl)cccc4Cl)noc3C3CC3)sc2c1 [Compound I-1, 2-[(1S,4S,5R)-5-[5-cyclopropyl-3-(2,6-dichlorophenyl)-1,2-oxazole-4-carbonyloxy]-2-azabicyclo[2.2.1]heptan-2-yl]-4-fluoro-1,3-benzothiazole-6-carboxylic Acid]",7.4,148,126,10
"O=C(O)c1ccc2nc(N3C[C@@H]4C[C@H]3C[C@H]4OC(=O)c3c(-c4c(Cl)cccc4Cl)noc3C3CC3)sc2c1 [Compound I-2, 2-[(1S,4S,5R)-5-[5-cyclopropyl-3-(2,6-dichlorophenyl)-1,2-oxazole-4-carbonyloxy]-2-azabicyclo[2.2.1]heptan-2-yl]-1,3-benzothiazole-6-carboxylic acid]",7.3,138,120,10
"Cc1cc(C(=O)O)cc2sc(N3C[C@@H]4C[C@H]3C[C@H]4OC(=O)c3c(-c4c(Cl)cccc4Cl)noc3C3CC3)nc12 [Compound I-3, 2-[(1S,4S,5R)-5-[5-cyclopropyl-3-(2,6-dichlorophenyl)-1,2-oxazole-4-carbonyloxy]-2-azabicyclo[2.2.1]heptan-2-yl]-4-methyl-1,3-benzothiazole-6-carboxylic acid]",7.6,153,123,5.01
"O=C(O)c1cc(C2CC2)c2nc(N3C[C@@H]4C[C@H]3C[C@H]4OC(=O)c3c(-c4c(Cl)cccc4Cl)noc3C3CC3)sc2c1 [Compound I-4, 4-cyclopropyl-2-[(1S,4S,5R)-5-[5-cyclopropyl-3-(2,6-dichlorophenyl)-1,2-oxazole-4-carbonyloxy]-2-azabicyclo[2.2.1]heptan-2-yl]-1,3-benzothiazole-6-carboxylic acid]",7.3,166,112,3.16
"O=C(O)c1cc(C(F)(F)F)c2nc(N3C[C@@H]4C[C@H]3C[C@H]4OC(=O)c3c(-c4c(Cl)cccc4Cl)noc3C3CC3)sc2c1 [Compound I-5, 2-[(1S,4S,5R)-5-[5-cyclopropyl-3-(2,6-dichlorophenyl)-1,2-oxazole-4-carbonyloxy]-2-azabicyclo[2.2.1]heptan-2-yl]-4-(trifluoromethyl)-1,3-benzothiazole-6-carboxylic acid]",7.2,139,102,39.8
O=C(O)c1cc(OC(F)(F)F)c2nc(N3C[C@@H]4C[C@H]3C[C@H]4OC(=O)c3c(-c4c(Cl)cccc4Cl)noc3C3CC3)sc2c1 [Compound I-6],7.7,173,112,3.98
"O=C(O)c1cc(OCC(F)(F)F)c2nc(N3C[C@@H]4C[C@H]3C[C@H]4OC(=O)c3c(-c4c(Cl)cccc4Cl)noc3C3CC3)sc2c1 [Compound I-7, 2-[(1S,4S,5R)-5-[5-cyclopropyl-3-(2,6-dichlorophenyl)-1,2-oxazole-4-carbonyloxy]-2-azabicyclo[2.2.1]heptan-2-yl]-4-(2,2,2-trifluoroethoxy)-1,3-benzothiazole-6-carboxylic acid]",7.4,162,119,5.01
"CCOc1cc(C(=O)O)cc2sc(N3C[C@@H]4C[C@H]3C[C@H]4OC(=O)c3c(-c4c(Cl)cccc4Cl)noc3C3CC3)nc12 [Compound I-8, 2-[(1S,4S,5R)-5-[5-cyclopropyl-3-(2,6-dichlorophenyl)-1,2-oxazole-4-carbonyloxy]-2-azabicyclo[2.2.1]heptan-2-yl]-4-ethoxy-1,3-benzothiazole-6-carboxylic acid]",7.6,137,106,2.51
"O=C(O)c1cc(OC(F)(F)F)c2nc(N3C[C@@H]4C[C@H]3C[C@H]4OC(=O)c3c(-c4ccccc4C(F)(F)F)noc3C3CC3)sc2c1 [Compound I-9, 2-[(1S,4S,5R)-5-{5-cyclopropyl-3-[2-(trifluoromethyl)phenyl]-1,2-oxazole-4-carbonyloxy}-2-azabicyclo[2.2.1]heptan-2-yl]-4-(trifluoromethoxy)-1,3-benzothiazole-6-carboxylic Acid]",7.1,172,107,5.01
"O=C(O)c1cc(F)c2nc(N3C[C@@H]4C[C@H]3C[C@H]4OC(=O)c3c(-c4c(Cl)cccc4Cl)noc3C3(F)CC3)sc2c1 [Compound I-10, 2-[(1S,4S,5R)-5-[3-(2,6-dichlorophenyl)-5-(1-fluorocyclopropyl)-1,2-oxazole-4-carbonyloxy]-2-azabicyclo[2.2.1]heptan-2-yl]-4-fluoro-1,3-benzothiazole-6-carboxylic Acid]",7,145,111,25.1
"O=C(O)c1cc(F)c2nc(N3C[C@@H]4C[C@H]3C[C@H]4OC(=O)c3c(C45CCC(CC4)CC5)noc3C3CC3)sc2c1 [Compound I-11, 2-[(1S,4S,5R)-5-(3-{bicyclo[2.2.2]octan-1-yl}-5-cyclopropyl-1,2-oxazole-4-carbonyloxy)-2-azabicyclo[2.2.1]heptan-2-yl]-4-fluoro-1,3-benzothiazole-6-carboxylic Acid]",7.7,15,28,251
"O=C(O)c1cc(F)c2nc(N3C[C@@H]4C[C@H]3C[C@H]4OCc3c(-c4c(Cl)cccc4Cl)noc3C3CC3)sc2c1 [Compound I-12, 2-[(1S,4S,5R)-5-{[5-cyclopropyl-3-(2,6-dichlorophenyl)-1,2-oxazol-4-yl]methoxy}-2-azabicyclo[2.2.1]heptan-2-yl]-4-fluoro-1,3-benzothiazole-6-carboxylic Acid]",9,153,122,0.1
"Cc1cc(C(=O)O)cc2sc(N3C[C@@H]4C[C@H]3C[C@H]4OCc3c(-c4c(Cl)cccc4Cl)noc3C3CC3)nc12 [Compound I-13, 2-[(1S,4S,5R)-5-{[5-cyclopropyl-3-(2,6-dichlorophenyl)-1,2-oxazol-4-yl]methoxy}-2-azabicyclo[2.2.1]heptan-2-yl]-4-methyl-1,3-benzothiazole-6-carboxylic acid]",8.6,174,116,0.158
"O=C(O)c1cc(C2CC2)c2nc(N3C[C@@H]4C[C@H]3C[C@H]4OCc3c(-c4c(Cl)cccc4Cl)noc3C3CC3)sc2c1 [Compound I-14, 4-cyclopropyl-2-[(1S,4S,5R)-5-{[5-cyclopropyl-3-(2,6-dichlorophenyl)-1,2-oxazol-4-yl]methoxy}-2-azabicyclo[2.2.1]heptan-2-yl]-1,3-benzothiazole-6-carboxylic acid]",8.6,146,111,0.1
"O=C(O)c1cc(C(F)(F)F)c2nc(N3C[C@@H]4C[C@H]3C[C@H]4OCc3c(-c4c(Cl)cccc4Cl)noc3C3CC3)sc2c1 [Compound I-15, 2-[(1S,4S,5R)-5-{[5-cyclopropyl-3-(2,6-dichlorophenyl)-1,2-oxazol-4-yl]methoxy}-2-azabicyclo[2.2.1]heptan-2-yl]-4-(trifluoromethyl)-1,3-benzothiazole-6-carboxylic acid]",7.8,150,104,0.251
O=C(O)c1cc(OC(F)(F)F)c2nc(N3C[C@@H]4C[C@H]3C[C@H]4OCc3c(-c4c(Cl)cccc4Cl)noc3C3CC3)sc2c1 [Compound I-16],8.8,174,109,0.0398
